Assay results: patent publication US20220125051A1, “PRE-HARVEST DESICCATION METHOD” (SYNGENTA CROP PROTECTION AG, priority 2019, published 2022)
Where two headings read alike, the source gives them in different places.

How the values were obtained:
Assay in all cases: Post-emergence efficacy, Method A
Format in all cases: in vivo
[1] = system: Amaranthus palmeri (AMAPA); conditions: evaluated after 13 days; for pest or weed control at 500 g/ha: Amaranthus palmeri, post-emergence, 312 h
Outline: (§1)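 Visual damage score, 0 (no damage) to 100 (total), taken 13 d after spraying. Pot-grown plants at 14 d post-sowing received an aqueous spray from a 50 g/l acetone/IF50 solution diluted in 0.25% or 1% Empicol ESC70 + 1% ammonium sulphate; glasshouse 24/16 °C, 14 h light, 65% RH, watered twice daily.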

[2] = system: Chenopodium album (CHEAL); conditions: Chenopodium album, post-emergence, 312 h, evaluated after 13 days
Outline: as §1

[3] = system: Digitaria sanguinalis (DIGSA); conditions: Digitaria sanguinalis, post-emergence, 312 h, evaluated after 13 days
Outline: as §1

[4] = system: Echinochloa crus-galli (ECHCG); conditions: Echinochloa crus-galli, post-emergence, 312 h, evaluated after 13 days
Outline: as §1

Eleusine indica (ELEIN) = conditions: Eleusine indica, post-emergence, 312 h, evaluated after 13 days
Outline: as §1

[5] = system: Euphorbia heterophylla (EPHHL); conditions: Euphorbia heterophylla, post-emergence, 312 h, evaluated after 13 days
Outline: as §1

[6] = system: Ipomoea hederacea (IPOHE); conditions: Ipomoea hederacea, post-emergence, 312 h, evaluated after 13 days
Outline: as §1

Lolium perenne (LOLPE) = conditions: Lolium perenne, post-emergence, 312 h, evaluated after 13 days
Outline: as §1

Setaria faberi (SETFA) = conditions: Setaria faberi, post-emergence, 312 h, evaluated after 13 days
Outline: as §1

[7] = Application rate 500 g/Ha, 100=total damage to plant, 0=no damage to plant, read-out: Control of weed species after post-emergence application, AMAPA
[8] = Application rate 500 g/Ha, 100=total damage to plant, 0=no damage to plant, read-out: Control of weed species after post-emergence application, CHEAL
[9] = Application rate 500 g/Ha, 100=total damage to plant, 0=no damage to plant, read-out: Control of weed species after post-emergence application, DIGSA
[10] = Application rate 500 g/Ha, 100=total damage to plant, 0=no damage to plant, read-out: Control of weed species after post-emergence application, ECHCG
[11] = Application rate 500 g/Ha, 100=total damage to plant, 0=no damage to plant, read-out: Control of weed species after post-emergence application, ELEIN
[12] = Application rate 500 g/Ha, 100=total damage to plant, 0=no damage to plant, read-out: Control of weed species after post-emergence application, EPHHL
[13] = Application rate 500 g/Ha, 100=total damage to plant, 0=no damage to plant, read-out: Control of weed species after post-emergence application, IPOHE
[14] = Application rate 500 g/Ha, 100=total damage to plant, 0=no damage to plant, read-out: Control of weed species after post-emergence application, LOLPE
[15] = Application rate 500 g/Ha, 100=total damage to plant, 0=no damage to plant, read-out: Control of weed species after post-emergence application, SETFA
[16] = Application Rate 500 g/Ha, Method A, read-out: Control of weed species after post-emergence application, AMAPA (100=total damage to plant; 0=no damage to plant)
[17] = Application Rate 500 g/Ha, Method A, read-out: Control of weed species after post-emergence application, CHEAL (100=total damage to plant; 0=no damage to plant)
[18] = Application Rate 500 g/Ha, Method A, read-out: Control of weed species after post-emergence application, DIGSA (100=total damage to plant; 0=no damage to plant)
[19] = Application Rate 500 g/Ha, Method A, read-out: Control of weed species after post-emergence application, ECHCG (100=total damage to plant; 0=no damage to plant)
[20] = Application Rate 500 g/Ha, Method A, read-out: Control of weed species after post-emergence application, ELEIN (100=total damage to plant; 0=no damage to plant)
[21] = Application Rate 500 g/Ha, Method A, read-out: Control of weed species after post-emergence application, EPHHL (100=total damage to plant; 0=no damage to plant)
[22] = Application Rate 500 g/Ha, Method A, read-out: Control of weed species after post-emergence application, IPOHE (100=total damage to plant; 0=no damage to plant)
[23] = Application Rate 500 g/Ha, Method A, read-out: Control of weed species after post-emergence application, LOLPE (100=total damage to plant; 0=no damage to plant)
[24] = Application Rate 500 g/Ha, Method A, read-out: Control of weed species after post-emergence application, SETFA (100=total damage to plant; 0=no damage to plant)

Compound	pest or weed control at 500 g/ha [1, 7] [%]	pest or weed control at 500 g/ha [2, 8] [%]	pest or weed control at 500 g/ha [3, 9] [%]	pest or weed control at 500 g/ha [4, 10] [%]	pest or weed control at 500 g/ha (Eleusine indica (ELEIN); [11]) [%]	pest or weed control at 500 g/ha [5, 12] [%]	pest or weed control at 500 g/ha [6, 13] [%]	pest or weed control at 500 g/ha (Lolium perenne (LOLPE); [14]) [%]	pest or weed control at 500 g/ha (Setaria faberi (SETFA); [15]) [%]	pest or weed control at 500 g/ha [1, 16] [%]	pest or weed control at 500 g/ha [2, 17] [%]	pest or weed control at 500 g/ha [3, 18] [%]	pest or weed control at 500 g/ha [4, 19] [%]	pest or weed control at 500 g/ha (Eleusine indica (ELEIN); [20]) [%]	pest or weed control at 500 g/ha [5, 21] [%]	pest or weed control at 500 g/ha [6, 22] [%]	pest or weed control at 500 g/ha (Lolium perenne (LOLPE); [23]) [%]	pest or weed control at 500 g/ha (Setaria faberi (SETFA); [24]) [%]	Control of weed species after post-emergence application, AMAPA ([1]; Application rate 500 g/Ha, 100=total damage to plant, 0=no damage to plant)
O=S(=O)([O-])CCC[n+]1ccc(-c2cnc(F)cn2)cn1 [Compound A98]	40	20	10	20	20	40	30	0	20										
O=S(=O)(O)CCC[n+]1ccc(-c2cnccn2)cn1 [Compound A10]	100	100	60	30	50	100	40	90	60										
O=S(=O)([O-])CCC[n+]1ccc(-c2cnc(Cl)cn2)cn1 [Compound A79]	10	30	20	10	20	10	0	0	10										
O=C(O)CC[n+]1ccc(-c2ccc(C(F)(F)F)nn2)cn1 [Compound A126]	100	80	80	80	90	100	30	70	100										
CO[N-]C(=O)CC[n+]1ccc(-c2ncccn2)cn1 [Compound A218]										100	80	70	60	60	80	70	70	60	
CC(C(=O)OC(C)(C)C)[n+]1ccc(-c2ncccn2)cn1 (stereo not drawn) [Compound A193]										70	60	30	10	30	60	30	10	10	
Cc1n[n+](CCC(=O)O)ccc1-c1ncccn1.O=C([O-])C(F)(F)F [Compound A132]		30	90	70	90	30	10	50	100										90
COc1ccnc(-c2cc[n+](CCC(=O)[O-])nc2)n1 [Compound A101]	80	70	60	60	40	80	10	70	80										
